Laboratory results taken from patent US20260070899A1, “N-(2-(4-CYANOTHIAZOLIDIN-3-YL)-2-OXOETHYL)-QUINOLINE-4-CARBOXAMIDES” (AstraZeneca AB, priority 2022, published 2026).

Tests used:
Rat Hepatocytes (rHep) = assay: Metabolic stability in rat hepatocytes (rHep); assay type: in vitro ADME; conditions: n = 1 or geometric mean (n = 2-3)
Protocol: Metabolic stability in rat hepatocytes was measured as described in J Comput Aided Mol Des 2015, 29, 795.

Kinetic solubility = assay type: physicochemical; conditions: kinetic from dmso stock, n = 1 or average (n = 2-4)
Protocol: Kinetic solubility was measured as described in Comput Aided Mol Des 2015, 29, 795.

[1] = molecular target: T1, FAP enzyme activity in mouse plasma (Mus musculus, UniProt P97321); assay: FAP target engagement enzyme activity in mouse plasma (in vivo); conditions: male C57Bl/6 mice, single oral dose 3 or 10 mg/kg; exposure vs plasma FAP activity, Imax fixed to 1
T1 construct: tissue Charles River; host or cells: plasma of male C57Bl/6 mice after oral dosing
T1 sequence (P97321 24-761 limits assumed): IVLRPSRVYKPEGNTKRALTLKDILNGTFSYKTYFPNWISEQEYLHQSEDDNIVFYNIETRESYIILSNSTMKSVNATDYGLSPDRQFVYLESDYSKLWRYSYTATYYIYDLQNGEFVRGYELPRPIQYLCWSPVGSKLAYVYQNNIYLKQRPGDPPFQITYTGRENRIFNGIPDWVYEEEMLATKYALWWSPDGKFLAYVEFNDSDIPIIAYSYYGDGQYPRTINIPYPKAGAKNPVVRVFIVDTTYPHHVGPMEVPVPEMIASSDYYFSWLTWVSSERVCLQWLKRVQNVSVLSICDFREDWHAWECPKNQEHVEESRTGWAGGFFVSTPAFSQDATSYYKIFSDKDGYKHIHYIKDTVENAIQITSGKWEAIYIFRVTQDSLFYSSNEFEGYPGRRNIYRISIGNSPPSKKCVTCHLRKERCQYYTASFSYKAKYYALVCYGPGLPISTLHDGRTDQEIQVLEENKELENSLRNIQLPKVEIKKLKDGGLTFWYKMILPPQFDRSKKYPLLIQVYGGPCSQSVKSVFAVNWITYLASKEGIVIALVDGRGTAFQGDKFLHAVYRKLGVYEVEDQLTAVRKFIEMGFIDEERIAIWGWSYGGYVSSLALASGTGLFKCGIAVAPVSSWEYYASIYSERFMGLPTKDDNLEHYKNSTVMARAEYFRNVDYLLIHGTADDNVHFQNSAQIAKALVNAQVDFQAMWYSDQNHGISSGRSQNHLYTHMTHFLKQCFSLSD
Protocol: The effect of test compound on FAP enzyme activity in mouse plasma was evaluated in an enzymatic assay using the Fibroblast Activation Protein alpha (FAP) specific fluorogenic substrate dipeptide-Coumarin, Ala-Pro-AMC, (ARI-3144). In this assay, FAP cleaves Ala-Pro-AMC to release free AMC which is measured as a fluorescent signal that correlates with enzyme activity.
Male C57Bl/6 mice (Charles River, Germany), 8 weeks of age, were single housed in a temperature-controlled room with a 12-hour light/dark cycle (06:00-18:00 light). The mice had ad libitum access to water and rodent chow diet (R70, Lactamin, Kimstad, Sweden), and were acclimated for 5 days upon arrival. After acclimation, all mice received a single oral dose of test compound (3 or 10 mg/kg). Blood samples for whole blood compound exposure measurements were taken at 0.25, 0.5, 1, 2, 4, 8 and 24 h post oral dosing. Samples were collected in EDTA capillary tubes (20 μL, K2E, REF 19.447) and were transferred to a 96-deep well plate (NUNC, Thermo Discher Scientific) and stored at −20° C. until further analyses were performed. […]
Recombinant human FAP (PB-17-1837, construct PL-17-0278, cd33-FAP (27-757)-6His, Mw85926 Da) was used as a standard for this assay. […] The plates were read on a Beckman Paradigm reader with excitation 360 nm and emission 465 nm. Fluorescence measurements were performed with kinetic read every 5 minutes for 60 min at rt. Data were analyzed in Excel (IDBS XLfit Add-In) using a Linear Regression (y=k*x+m) model to prepare a human recombinant FAP standard curve.
On the day of the assay, plasma was diluted (1:2) to 20 μL volume in buffer (PBS, 0.1% BSA) and 7.5 μL was transferred to the assay plate (384-well black, fluotrack PS, Greiner 781076). […] The plates were read on a Beckman Paradigm reader with excitation 360 nm and emission 465 nm. Fluorescence measurements were performed with kinetic read every 5 minutes for 60 minutes at rt. As noted above, FAP cleaves Ala-Pro-AMC to release free AMC which is measured as a fluorescent signal. […]

SMILES	rHeps CLint (Rat Hepatocytes (rHep)) [μL/min/1E6]	solubility (Kinetic solubility) [µM]	IC50 [1] [nM]
COC(C)(C)c1ccc2nccc(C(=O)NCC(=O)N3CSC[C@H]3C#N)c2c1 [Example 18, (R)—N-(2-(4-Cyanothiazolidin-3-yl)-2-oxoethyl)-6-(2-methoxypropan-2-yl)quinoline-4-carboxamide]	26	> 1000	–
N#C[C@@H]1CSCN1C(=O)CNC(=O)c1ccnc2ccc(C3CCOCC3)cc12 [Example 20, (R)—N-(2-(4-Cyanothiazolidin-3-yl)-2-oxoethyl)-6-(tetrahydro-2H-pyran-4-yl)quinoline-4-carboxamide]	–	–	8.8
CC(C)(F)COc1ccc2nccc(C(=O)NCC(=O)N3CSC[C@H]3C#N)c2c1 [Example 3, (R)—N-(2-(4-Cyanothiazolidin-3-yl)-2-oxoethyl)-6-(2-fluoro-2-methylpropoxy)quinoline-4-carboxamide]	–	–	7.6
CO[C@H]1CC[C@H](c2ccc3nccc(C(=O)NCC(=O)N4CSC[C@H]4C#N)c3c2)CC1 (single isomer, unassigned) [Example 78, N-(2-((R)-4-Cyanothiazolidin-3-yl)-2-oxoethyl)-6-((1r,4R*)-4-methoxycyclohexyl)quinoline-4-carboxamide]	–	–	2.6
